# Target: Glucagon receptor (Rattus norvegicus, UniProt P30082)
# Experiment: Inhibition of [125I]glucagon binding towards Glucagon receptor
# Sequence of Glucagon receptor (P30082 whole entry): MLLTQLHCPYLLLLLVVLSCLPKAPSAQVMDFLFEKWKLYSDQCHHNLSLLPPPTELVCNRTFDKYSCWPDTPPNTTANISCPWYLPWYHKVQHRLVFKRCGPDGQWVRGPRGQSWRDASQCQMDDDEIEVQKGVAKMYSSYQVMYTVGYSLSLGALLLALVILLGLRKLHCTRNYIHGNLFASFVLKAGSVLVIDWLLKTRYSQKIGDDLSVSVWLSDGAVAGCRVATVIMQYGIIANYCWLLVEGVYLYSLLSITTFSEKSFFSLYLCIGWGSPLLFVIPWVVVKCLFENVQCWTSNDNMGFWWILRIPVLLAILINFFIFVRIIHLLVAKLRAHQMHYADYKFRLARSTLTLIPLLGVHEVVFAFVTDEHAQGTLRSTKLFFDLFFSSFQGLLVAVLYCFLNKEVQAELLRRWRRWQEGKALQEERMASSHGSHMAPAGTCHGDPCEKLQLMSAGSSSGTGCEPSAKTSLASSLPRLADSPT
row,SMILES,IC50 [µM]
1,CSCC[C@H](NC(=O)[C@H](CC(C)C)NC(=O)[C@H](Cc1c[nH]c2ccccc12)NC(=O)[C@H](CCC(N)=O)NC(=O)[C@@H](NC(=O)[C@H](Cc1ccccc1)NC(=O)[C@H](CC(=O)O)NC(=O)[C@H](CCC(N)=O)NC(=O)[C@H](C)NC(=O)[C@H](CCCNC(=N)N)NC(=O)[C@H](CCCNC(=N)N)NC(=O)[C@H](CO)NC(=O)[C@H](CC(=O)O)NC(=O)[C@H](CC(C)C)NC(=O)[C@H](Cc1ccc(O)cc1)NC(=O)[C@H](CCCCN)NC(=O)[C@H](CO)NC(=O)[C@@H](Cc1ccccc1)NC(=O)[C@H](CCC(=O)O)NC(=O)[C@H](CO)NC(=O)[C@@H](NC(=O)[C@H](Cc1ccccc1)NC(=O)[C@H](Cc1ccc(O)cc1)NC(=O)CNC(=O)[C@H](CCC(N)=O)NC(=O)[C@@H](N)CO)[C@@H](C)O)C(C)C)C(=O)N[C@@H](CC(N)=O)C(=O)N[C@H](C(N)=O)[C@@H](C)O,0.0345
2,CSCC[C@H](NC(=O)[C@H](CC(C)C)NC(=O)[C@H](Cc1c[nH]c2ccccc12)NC(=O)[C@H](CCC(N)=O)NC(=O)[C@@H](NC(=O)[C@H](Cc1ccccc1)NC(=O)[C@H](CC(=O)O)NC(=O)[C@H](CCC(N)=O)NC(=O)[C@H](C)NC(=O)[C@H](CCCNC(=N)N)NC(=O)[C@H](CCCNC(=N)N)NC(=O)[C@H](CO)NC(=O)[C@H](CC(=O)O)NC(=O)[C@H](CC(C)C)NC(=O)[C@H](Cc1ccc(O)cc1)NC(=O)[C@H](CCCCN)NC(=O)[C@H](CO)NC(=O)[C@H](C)NC(=O)[C@H](CCC(=O)O)NC(=O)[C@H](CO)NC(=O)[C@@H](NC(=O)[C@H](Cc1ccccc1)NC(=O)[C@H](Cc1ccc(O)cc1)NC(=O)CNC(=O)[C@H](CCC(N)=O)NC(=O)[C@@H](N)CO)[C@@H](C)O)C(C)C)C(=O)N[C@@H](CC(N)=O)C(=O)N[C@H](C(N)=O)[C@@H](C)O,0.395
3,CSCC[C@H](NC(=O)[C@H](CC(C)C)NC(=O)[C@H](Cc1c[nH]c2ccccc12)NC(=O)[C@H](CCC(N)=O)NC(=O)[C@@H](NC(=O)[C@H](Cc1ccccc1)NC(=O)[C@H](CC(=O)O)NC(=O)[C@H](CCC(N)=O)NC(=O)[C@H](C)NC(=O)[C@H](CCCN=C(N)N)NC(=O)[C@H](CCCN=C(N)N)NC(=O)[C@H](CO)NC(=O)[C@H](CC(=O)O)NC(=O)[C@H](CC(C)C)NC(=O)[C@H](Cc1ccc(O)cc1)NC(=O)[C@H](CCCCN)NC(=O)[C@H](CO)NC(=O)[C@H](Cc1ccc(O)cc1)NC(=O)[C@H](CCC(=O)O)NC(=O)[C@H](CO)NC(=O)[C@@H](NC(=O)[C@H](Cc1ccccc1)NC(=O)[C@H](Cc1ccc(O)cc1)NC(=O)CNC(=O)[C@H](CCC(N)=O)NC(=O)[C@@H](N)CO)[C@@H](C)O)C(C)C)C(=O)N[C@@H](CC(N)=O)C(=O)N[C@H](C(N)=O)[C@@H](C)O,0.0023
4,CSCC[C@H](NC(=O)[C@H](CC(C)C)NC(=O)[C@H](Cc1c[nH]c2ccccc12)NC(=O)[C@H](CCC(N)=O)NC(=O)[C@@H](NC(=O)[C@H](Cc1ccccc1)NC(=O)[C@H](CC(=O)O)NC(=O)[C@H](CCC(N)=O)NC(=O)[C@H](C)NC(=O)[C@H](CCCNC(=N)N)NC(=O)[C@H](CCCNC(=N)N)NC(=O)[C@H](CO)NC(=O)[C@H](CC(=O)O)NC(=O)[C@H](CC(C)C)NC(=O)[C@H](Cc1ccc(O)cc1)NC(=O)[C@H](CCCCN)NC(=O)[C@H](CO)NC(=O)[C@H](Cc1ccccc1)NC(=O)[C@H](CCC(=O)O)NC(=O)[C@H](CO)NC(=O)[C@@H](NC(=O)[C@H](Cc1ccccc1)NC(=O)[C@H](Cc1ccc(O)cc1)NC(=O)CNC(=O)[C@H](CCC(N)=O)NC(=O)[C@@H](N)CO)[C@@H](C)O)C(C)C)C(=O)N[C@@H](CC(N)=O)C(=O)N[C@H](C(N)=O)[C@@H](C)O,0.0041

# Further compounds by falling IC50, results first:
row,IC50 [µM],SMILES
1,0.51,CSCC[C@H](NC(=O)[C@H](CC(C)C)NC(=O)[C@H](Cc1c[nH]c2ccccc12)NC(=O)[C@H](CCC(N)=O)NC(=O)[C@@H](NC(=O)[C@H](Cc1ccccc1)NC(=O)[C@H](CC(=O)O)NC(=O)[C@H](CCC(N)=O)NC(=O)C(C)NC(=O)[C@H](CCCN=C(N)N)NC(=O)[C@H](CCCN=C(N)N)NC(=O)[C@H](CO)NC(=O)[C@H](CC(=O)O)NC(=O)[C@H](CC(C)C)NC(=O)[C@H](Cc1ccc(O)cc1)NC(=O)[C@H](CCCCN)NC(=O)[C@H](CO)NC(=O)C(C)NC(=O)[C@H](CCC(=O)O)NC(=O)[C@H](CO)NC(=O)[C@@H](NC(=O)[C@H](Cc1ccccc1)NC(=O)[C@H](Cc1ccc(O)cc1)NC(=O)CNC(=O)[C@H](CCC(N)=O)NC(=O)[C@@H](N)CO)[C@@H](C)O)C(C)C)C(=O)N[C@@H](CC(N)=O)C(=O)N[C@H](C(N)=O)[C@@H](C)O (stereo in doubt)
2,0.074,CSCC[C@H](NC(=O)[C@H](CC(C)C)NC(=O)[C@H](Cc1c[nH]c2ccccc12)NC(=O)[C@H](CCC(N)=O)NC(=O)[C@@H](NC(=O)[C@H](Cc1ccccc1)NC(=O)[C@H](CC(=O)O)NC(=O)[C@H](CCC(N)=O)NC(=O)[C@H](C)NC(=O)[C@H](CCCN=C(N)N)NC(=O)[C@H](CCCN=C(N)N)NC(=O)[C@H](CO)NC(=O)[C@H](CC(=O)O)NC(=O)[C@H](CC(C)C)NC(=O)[C@H](Cc1ccc(O)cc1)NC(=O)[C@H](CCCCN)NC(=O)[C@H](CO)NC(=O)[C@@H](Cc1ccc(O)cc1)NC(=O)[C@H](CCC(=O)O)NC(=O)[C@H](CO)NC(=O)[C@@H](NC(=O)[C@H](Cc1ccccc1)NC(=O)[C@H](Cc1ccc(O)cc1)NC(=O)CNC(=O)[C@H](CCC(N)=O)NC(=O)[C@@H](N)CO)[C@@H](C)O)C(C)C)C(=O)N[C@@H](CC(N)=O)C(=O)N[C@H](C(N)=O)[C@@H](C)O
3,0.01,CSCC[C@H](NC(=O)[C@H](CC(C)C)NC(=O)[C@H](Cc1c[nH]c2ccccc12)NC(=O)[C@H](CCC(N)=O)NC(=O)[C@@H](NC(=O)[C@H](Cc1ccccc1)NC(=O)[C@H](CC(=O)O)NC(=O)[C@H](CCC(N)=O)NC(=O)[C@H](C)NC(=O)[C@H](CCCN=C(N)N)NC(=O)[C@H](CCCN=C(N)N)NC(=O)[C@H](CO)NC(=O)[C@H](CC(=O)O)NC(=O)[C@H](CC(C)C)NC(=O)[C@H](Cc1ccc(O)cc1)NC(=O)[C@H](CCCCN)NC(=O)[C@H](CO)NC(=O)[C@@H](NC(=O)[C@H](CCC(=O)O)NC(=O)[C@H](CO)NC(=O)[C@@H](NC(=O)[C@H](Cc1ccccc1)NC(=O)[C@H](Cc1ccc(O)cc1)NC(=O)CNC(=O)[C@H](CCC(N)=O)NC(=O)[C@@H](N)CO)[C@@H](C)O)[C@H](C)c1ccccc1)C(C)C)C(=O)N[C@@H](CC(N)=O)C(=O)N[C@H](C(N)=O)[C@@H](C)O
